Active and inactive are the calls of the source.
Legend:
[1] = cytotoxicity in NIH/3T3 mouse fibroblasts, dose response, cytotoxicity control, cell-based, mouse embryonic fibroblasts, dry powder, set 2 (AID 493247); format: functional; conditions: Fibroblast
[2] = test system: Trypanosoma cruzi; assay: growth inhibition of intracellular Trypanosoma cruzi, dose response, cell-based, plate reader, dry powder, set 3 (AID 493197); format: functional
[3] = test system: HEK293; assay: NOD1 signaling inhibitors, primary screen, cell-based, luminescence, uHTS (AID 1578); format: functional; conditions: Homo sapiens
[4] = test system: HEK293; assay: cells; format: functional, cell-based; conditions: Homo sapiens
[5] = test system: HEK293; assay: cells; format: functional, cell-based; conditions: Homo sapiens; remark: listed apart in the source
[6] = molecular target: Nucleotide-binding oligomerization domain-containing protein 2 (Homo sapiens, UniProt Q9HC29); assay: NOD2 signaling inhibitors, cell-based, luminescence, uHTS, HEK293 (AID 1566); format: functional
Sequence of Nucleotide-binding oligomerization domain-containing protein 2 (Q9HC29 whole entry, the tested form may be a part): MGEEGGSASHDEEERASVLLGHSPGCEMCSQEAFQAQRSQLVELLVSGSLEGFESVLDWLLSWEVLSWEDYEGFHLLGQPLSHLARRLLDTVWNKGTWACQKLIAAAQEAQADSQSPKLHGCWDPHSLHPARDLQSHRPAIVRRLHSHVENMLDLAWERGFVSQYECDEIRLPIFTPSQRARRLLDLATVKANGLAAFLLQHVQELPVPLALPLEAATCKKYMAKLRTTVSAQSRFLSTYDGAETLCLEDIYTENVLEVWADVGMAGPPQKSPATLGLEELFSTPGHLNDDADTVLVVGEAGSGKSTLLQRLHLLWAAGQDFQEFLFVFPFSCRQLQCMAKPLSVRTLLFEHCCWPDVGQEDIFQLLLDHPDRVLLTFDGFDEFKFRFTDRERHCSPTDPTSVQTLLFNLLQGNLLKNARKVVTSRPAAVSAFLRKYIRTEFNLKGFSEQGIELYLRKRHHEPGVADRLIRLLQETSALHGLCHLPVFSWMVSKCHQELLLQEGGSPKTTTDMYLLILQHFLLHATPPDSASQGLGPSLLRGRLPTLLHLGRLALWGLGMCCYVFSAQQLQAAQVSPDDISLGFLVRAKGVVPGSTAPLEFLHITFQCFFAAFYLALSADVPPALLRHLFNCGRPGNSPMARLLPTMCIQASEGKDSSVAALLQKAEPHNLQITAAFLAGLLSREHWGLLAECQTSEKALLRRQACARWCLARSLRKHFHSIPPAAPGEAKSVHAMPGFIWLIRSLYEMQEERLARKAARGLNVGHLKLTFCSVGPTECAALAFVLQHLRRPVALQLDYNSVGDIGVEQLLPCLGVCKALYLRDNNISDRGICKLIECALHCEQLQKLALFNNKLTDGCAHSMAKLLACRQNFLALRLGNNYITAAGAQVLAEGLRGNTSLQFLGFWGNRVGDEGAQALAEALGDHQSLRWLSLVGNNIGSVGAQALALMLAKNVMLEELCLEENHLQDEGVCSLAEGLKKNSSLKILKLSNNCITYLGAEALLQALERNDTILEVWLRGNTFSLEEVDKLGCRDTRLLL

[7] = test system: HEK293; assay: NOD2 signaling inhibitors in MDP-stimulated cells, cell-based, uHTS, luminescence (AID 2001); format: functional; conditions: Homo sapiens
[8] = inhibitors of intracellular T. cruzi replication, confirmation, NIH3T3 host cells, beta-gal luminescence (AID 2044); format: functional, cell-based;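 note: intracellular parasites grown in NIH/3T3 mouse fibroblasts as host cells; luminescent beta-galactosidase reporter signal from transgenic T. cruzi replicating inside host cells; inhibitors lower the luminescence signal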
[9] = test system: HEK293; assay: cells; format: functional, cell-based; conditions: Homo sapiens; remark: listed apart in the source
[10] = cytotoxicity toward NIH3T3 fibroblasts, dose response, counter-screen, cell-based, ATP luminescence, mouse fibroblasts (AID 2010); format: functional;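 note: cells exposed to compound for about 90 hours before reading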
[11] = molecular target: Voltage-dependent T-type calcium channel subunit alpha-1H (Homo sapiens, UniProt O95180); assay: Cav3.2 T-type channel inhibitors, cell-based, synthetic library set 1, calcium flux (AID 493022); format: functional
Sequence of Voltage-dependent T-type calcium channel subunit alpha-1H (O95180 whole entry, the tested form may be a part): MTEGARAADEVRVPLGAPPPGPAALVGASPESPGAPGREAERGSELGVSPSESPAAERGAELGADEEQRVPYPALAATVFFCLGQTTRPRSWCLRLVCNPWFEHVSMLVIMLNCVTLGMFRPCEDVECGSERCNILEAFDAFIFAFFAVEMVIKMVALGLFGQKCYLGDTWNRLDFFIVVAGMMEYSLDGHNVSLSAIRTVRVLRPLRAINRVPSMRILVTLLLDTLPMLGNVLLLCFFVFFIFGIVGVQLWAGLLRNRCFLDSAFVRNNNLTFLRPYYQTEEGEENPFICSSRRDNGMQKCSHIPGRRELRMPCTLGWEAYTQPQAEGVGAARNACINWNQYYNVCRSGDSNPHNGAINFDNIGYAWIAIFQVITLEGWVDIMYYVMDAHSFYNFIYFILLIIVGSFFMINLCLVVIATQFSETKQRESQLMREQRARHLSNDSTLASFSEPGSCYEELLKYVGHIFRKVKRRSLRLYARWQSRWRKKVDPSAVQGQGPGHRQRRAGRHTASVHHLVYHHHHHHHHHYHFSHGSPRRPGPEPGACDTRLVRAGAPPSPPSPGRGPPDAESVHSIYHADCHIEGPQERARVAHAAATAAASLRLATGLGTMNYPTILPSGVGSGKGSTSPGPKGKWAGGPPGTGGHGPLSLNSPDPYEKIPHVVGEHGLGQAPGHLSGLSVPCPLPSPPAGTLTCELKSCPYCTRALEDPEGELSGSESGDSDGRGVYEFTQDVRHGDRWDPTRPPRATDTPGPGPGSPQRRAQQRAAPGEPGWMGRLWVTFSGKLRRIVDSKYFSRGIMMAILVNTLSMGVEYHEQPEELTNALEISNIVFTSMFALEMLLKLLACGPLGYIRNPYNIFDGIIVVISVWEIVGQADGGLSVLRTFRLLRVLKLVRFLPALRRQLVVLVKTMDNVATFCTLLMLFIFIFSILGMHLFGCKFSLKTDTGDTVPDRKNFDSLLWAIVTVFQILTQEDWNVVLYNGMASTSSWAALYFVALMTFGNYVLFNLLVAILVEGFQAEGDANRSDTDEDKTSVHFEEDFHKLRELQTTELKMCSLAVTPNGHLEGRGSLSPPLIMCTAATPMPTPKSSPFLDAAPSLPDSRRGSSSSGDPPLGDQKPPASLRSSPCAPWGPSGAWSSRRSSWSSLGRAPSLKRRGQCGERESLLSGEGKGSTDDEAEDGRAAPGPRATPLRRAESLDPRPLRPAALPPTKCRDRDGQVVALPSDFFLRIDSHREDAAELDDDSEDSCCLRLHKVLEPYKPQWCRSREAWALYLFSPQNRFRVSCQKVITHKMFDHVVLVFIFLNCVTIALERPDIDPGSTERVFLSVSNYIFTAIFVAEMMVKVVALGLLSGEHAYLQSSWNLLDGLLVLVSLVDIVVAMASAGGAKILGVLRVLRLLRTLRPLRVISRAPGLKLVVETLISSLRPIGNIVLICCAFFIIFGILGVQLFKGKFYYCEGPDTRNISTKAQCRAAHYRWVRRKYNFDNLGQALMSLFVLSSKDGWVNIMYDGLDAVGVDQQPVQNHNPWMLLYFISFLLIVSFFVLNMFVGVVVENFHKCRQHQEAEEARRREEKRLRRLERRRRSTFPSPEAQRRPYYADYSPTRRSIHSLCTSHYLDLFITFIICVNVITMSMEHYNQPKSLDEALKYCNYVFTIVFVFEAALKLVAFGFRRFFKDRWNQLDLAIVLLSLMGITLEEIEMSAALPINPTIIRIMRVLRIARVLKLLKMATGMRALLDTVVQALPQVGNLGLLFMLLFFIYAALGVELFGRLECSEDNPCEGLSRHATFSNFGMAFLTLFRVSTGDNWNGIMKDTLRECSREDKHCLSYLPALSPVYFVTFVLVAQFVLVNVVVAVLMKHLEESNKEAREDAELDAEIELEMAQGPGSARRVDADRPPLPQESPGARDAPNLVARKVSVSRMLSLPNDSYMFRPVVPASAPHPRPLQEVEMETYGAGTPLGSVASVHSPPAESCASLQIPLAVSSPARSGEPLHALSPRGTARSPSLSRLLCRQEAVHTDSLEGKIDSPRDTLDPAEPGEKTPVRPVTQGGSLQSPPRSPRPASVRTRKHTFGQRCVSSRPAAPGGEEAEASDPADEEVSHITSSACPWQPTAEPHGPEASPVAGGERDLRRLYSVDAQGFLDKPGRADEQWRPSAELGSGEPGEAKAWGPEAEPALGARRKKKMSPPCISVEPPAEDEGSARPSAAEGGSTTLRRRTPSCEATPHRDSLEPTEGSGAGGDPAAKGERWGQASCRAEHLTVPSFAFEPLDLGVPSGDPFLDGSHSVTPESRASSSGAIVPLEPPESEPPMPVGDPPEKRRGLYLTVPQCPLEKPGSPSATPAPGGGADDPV

[12] = molecular target: T1, Type-1 angiotensin II receptor (Homo sapiens, UniProt P30556); assay: AT1 receptor agonists, dose response, selectivity assay for APJ receptor agonist project, cell-based, uHTS hits (AID 488865); format: functional;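 note: beta-arrestin recruitment to AT1 measured by enzyme fragment complementation luminescence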
T1 sequence (P30556 whole entry): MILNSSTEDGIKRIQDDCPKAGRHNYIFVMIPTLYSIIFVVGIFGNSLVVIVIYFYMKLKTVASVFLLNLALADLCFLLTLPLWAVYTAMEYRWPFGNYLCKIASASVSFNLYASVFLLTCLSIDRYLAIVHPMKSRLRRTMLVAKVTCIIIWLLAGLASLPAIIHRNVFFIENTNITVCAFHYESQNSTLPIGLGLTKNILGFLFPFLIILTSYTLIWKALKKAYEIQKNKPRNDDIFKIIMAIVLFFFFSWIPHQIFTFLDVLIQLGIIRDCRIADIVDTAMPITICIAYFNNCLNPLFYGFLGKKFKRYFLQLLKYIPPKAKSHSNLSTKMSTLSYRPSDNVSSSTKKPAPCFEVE

[13] = molecular target: T2, Runt-related transcription factor 1/Core-binding factor subunit beta (Homo sapiens, UniProt Q01196+Q13951); assay: inhibitors of RUNX1 Runt–CBFb-SMMHC binding, primary screen, biochemical, FRET, Cerulean-Runt, Venus-CBFb-SMMHC, uHTS (AID 1434); format: protein assay;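 note: partner is the CBFb-SMMHC leukemia fusion protein rather than wild-type CBFb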
T2 sequence (Q01196 whole entry, the tested form may be a part): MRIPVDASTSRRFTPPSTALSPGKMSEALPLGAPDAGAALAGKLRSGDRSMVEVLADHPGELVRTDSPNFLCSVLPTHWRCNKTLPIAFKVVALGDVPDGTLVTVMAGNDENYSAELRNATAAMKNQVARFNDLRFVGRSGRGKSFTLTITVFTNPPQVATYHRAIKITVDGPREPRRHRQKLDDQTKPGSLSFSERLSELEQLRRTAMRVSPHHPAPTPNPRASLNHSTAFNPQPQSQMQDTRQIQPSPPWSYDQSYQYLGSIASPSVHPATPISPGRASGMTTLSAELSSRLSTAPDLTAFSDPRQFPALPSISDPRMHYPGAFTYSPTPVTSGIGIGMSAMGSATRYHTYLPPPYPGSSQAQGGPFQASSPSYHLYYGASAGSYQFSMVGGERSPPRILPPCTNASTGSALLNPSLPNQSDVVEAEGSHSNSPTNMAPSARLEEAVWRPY
T2 sequence (Q13951 whole entry, the tested form may be a part): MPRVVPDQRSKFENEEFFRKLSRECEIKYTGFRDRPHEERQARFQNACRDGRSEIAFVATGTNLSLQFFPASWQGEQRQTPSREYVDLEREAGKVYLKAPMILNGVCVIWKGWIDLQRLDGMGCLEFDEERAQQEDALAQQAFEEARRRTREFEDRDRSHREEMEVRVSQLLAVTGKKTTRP

[14] = molecular target: T2, Runt-related transcription factor 1/Core-binding factor subunit beta; assay: inhibitors of RUNX1 Runt–CBFb-SMMHC binding, biochemical, TR-FRET (AID 1438); format: protein assay
[15] = molecular target: G-protein coupled receptor 55 (Homo sapiens, UniProt Q9Y2T6); assay: GPR55 antagonists blocking LPI-driven arrestin recruitment, primary screen, imaging, U2OS, beta-arrestin-GFP, LPI agonist (AID 2013); format: functional;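 note: antagonist potency measured as reduced agonist-driven arrestin aggregation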
Sequence of G-protein coupled receptor 55 (Q9Y2T6 whole entry): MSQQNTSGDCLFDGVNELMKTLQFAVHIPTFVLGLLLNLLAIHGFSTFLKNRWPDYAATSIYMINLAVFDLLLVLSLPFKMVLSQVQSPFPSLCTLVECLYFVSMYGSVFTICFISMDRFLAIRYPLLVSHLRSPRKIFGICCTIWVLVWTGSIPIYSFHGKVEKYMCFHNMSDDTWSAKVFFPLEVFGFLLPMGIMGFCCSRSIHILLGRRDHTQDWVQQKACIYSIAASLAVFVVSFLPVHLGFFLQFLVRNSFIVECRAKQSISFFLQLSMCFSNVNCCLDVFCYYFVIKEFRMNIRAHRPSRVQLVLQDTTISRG

[16] = molecular target: Hexokinase HKDC1 (Homo sapiens, UniProt Q2TB90); assay: HKDC1 hexokinase activators, dose response, biochemical, W721R variant (AID 504730); format: functional
[17] = molecular target: Nonstructural protein 1 (Influenza A virus, UniProt Q194T2); format: functional, Influenza A virus (A/California/07/2009(H1N1))
Sequence of Nonstructural protein 1 (Q194T2 whole entry): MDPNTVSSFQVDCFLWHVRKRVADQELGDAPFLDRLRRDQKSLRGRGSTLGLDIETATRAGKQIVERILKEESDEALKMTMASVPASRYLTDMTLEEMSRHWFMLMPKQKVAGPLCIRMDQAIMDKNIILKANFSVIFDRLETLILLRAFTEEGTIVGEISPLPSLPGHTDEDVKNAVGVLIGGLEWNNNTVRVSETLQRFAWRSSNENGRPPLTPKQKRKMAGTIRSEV

[18] = molecular target: Hexokinase-1 (Homo sapiens, UniProt P19367); assay: hexokinase 1 activators, dose response, selectivity assay for HKDC1 activator project, biochemical (AID 504762); format: functional
[19] = molecular target: Heat shock protein HSP 90-alpha (Homo sapiens, UniProt P07900); format: functional, organism-based

COc1ccc(CN2CCCC(C(=O)N3CCc4ccccc4C3)C2)cc1OC (centres undefined)
AC50 [1]: 41.7 µM (active)
AC50 [2]: 3.54 µM (active)

C=CCn1c(O)c(N=NC(=S)Nc2cccc(OC)c2)c2ccccc21
EC50 [3]: > 20 µM (inactive)
IC50 [4]: 3.41 µM (active)
IC50 [5]: > 20 µM (inactive)
EC50 [6]: > 20 µM (inactive)
IC50 [7]: 1.76 µM (active)
EC50 [8]: 0.589 µM (active)
IC50 [9]: > 20 µM (inactive)
EC50 [10]: 4.49 µM (active)

Cc1ccc(-c2nnc(NC(=O)C(C)(C)Oc3ccccc3)o2)cc1C
EC50 [11]: 2.1 µM (active)

COc1cc2c(cc1NC(=O)c1cc(-c3ccncc3)nc3ccc(C)cc13)oc1ccccc12
EC50 [12]: > 100 µM (inactive)

Cn1c(=O)c(/C=N/c2ccccc2)c(O)c2ccccc21
IC50 [13]: > 100 µM (inactive)
IC50 [14]: > 100 µM (inactive)

Cc1ccccc1CSCCNC(=O)c1ccc(N(C)S(=O)(=O)c2ccccc2)cc1
IC50 [15]: 3 µM (active)

CC(=NNC(=S)Nc1cccc(C)c1)c1ccccn1
EC50 [16]: 2.27 µM (active)
IC50 [17]: 8.54 µM (active)
EC50 [18]: > 80 µM (inactive)
AC50 [19]: 2.25 µM (active)
